According to ChEMBL document CHEMBL1201862, “PubChem BioAssay data set” (2004):
Calls of active or inactive are those of the source.

What was measured:
[1] = NIH/3T3 fibroblast cytotoxicity, dose response, cytotoxicity control for T. cruzi growth inhibitor project, cell-based, cherry-pick samples, set 2 (AID 651817); assay type: functional; conditions: NIH3T3
[2] = target: UDP-galactopyranose mutase (Mycobacterium tuberculosis, UniProt P9WIQ1); experiment: Inhibitors of Mycobacterium tuberculosis UDP-galactopyranose mutase (UGM) enzyme Measured in Biochemical System Using Plate Reader - 2105-02_Inhibitor_Dose_CherryPick_Activity. [Related pubchem assays (depositor defined):AID504439]
Streptococcus = experiment: Group A Streptococcus viability loss, dose response, counter-screen for streptokinase expression inhibitor project, luminescence, BacTiterGlo (AID 1915); assay type: functional, organism-based;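 further: potency for reduction of bacterial viability or growth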
CHO = experiment: cytotoxicity in TLR9-MyD88 CHO cells, dose response, cytotoxicity control for TLR9-MyD88 binding inhibitor project, cell-based, luminescence (AID 588339); assay type: functional, hamster; conditions: Cricetulus griseus;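 further: CHO cells stably coexpressing TLR9 and MyD88 fusions from primary screen; compound exposure lasted 48 hours before viability readout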
[3] = system: Streptococcus sp. 'group A'; experiment: growth inhibition of control SK(-) GAS strain, dose response, counter-screen for streptokinase expression inhibitor project, luminescence, kanamycin, BacTiterGlo, confirmation (AID 1900); assay type: functional, organism-based
Beta-lactamase [4] = target: Beta-lactamase (Salmonella choleraesuis (strain SC-B67), UniProt Q5J463)
Beta Lactamase [5] = target: T1, Beta Lactamase (Pseudomonas aeruginosa, UniProt Q932Y6); experiment: beta-lactamase reporter inhibitor potency, dose response, artefact control for TLR9-MyD88 binding inhibitor project, BLA reporter cells, FRET fluorescence (AID 588341); assay type: cell-based;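 further: cell based assay in CHO-K1 cells stably expressing beta-lactamase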
[6] = target: Voltage-dependent T-type calcium channel subunit alpha-1H (Homo sapiens, UniProt O95180); assay type: functional;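 further: channel activity triggered by adding a high calcium stimulation buffer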
Beta-lactamase [7] = target: Beta-lactamase (Pseudomonas aeruginosa, UniProt Q79MP6);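 further: biochemical dose-response test of metallo-beta-lactamase enzyme inhibition, read out by epi-absorbance; purified recombinant IMP-1 metallo-beta-lactamase with nitrocefin as substrate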
Beta Lactamase [8] = target: T1, Beta Lactamase
Streptokinase A = target: T2, Streptokinase A (Streptococcus pyogenes serotype M1, UniProt P10520); experiment: S. pyogenes streptokinase expression inhibitors, potency, dose response, plasminogen activation absorbance, OD405 (AID 1914); assay type: functional, Streptococcus pyogenes M1 GAS;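 further: secreted streptokinase activity via plasminogen activation per viability signal from cell pellet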
T2 sequence (P10520 whole entry): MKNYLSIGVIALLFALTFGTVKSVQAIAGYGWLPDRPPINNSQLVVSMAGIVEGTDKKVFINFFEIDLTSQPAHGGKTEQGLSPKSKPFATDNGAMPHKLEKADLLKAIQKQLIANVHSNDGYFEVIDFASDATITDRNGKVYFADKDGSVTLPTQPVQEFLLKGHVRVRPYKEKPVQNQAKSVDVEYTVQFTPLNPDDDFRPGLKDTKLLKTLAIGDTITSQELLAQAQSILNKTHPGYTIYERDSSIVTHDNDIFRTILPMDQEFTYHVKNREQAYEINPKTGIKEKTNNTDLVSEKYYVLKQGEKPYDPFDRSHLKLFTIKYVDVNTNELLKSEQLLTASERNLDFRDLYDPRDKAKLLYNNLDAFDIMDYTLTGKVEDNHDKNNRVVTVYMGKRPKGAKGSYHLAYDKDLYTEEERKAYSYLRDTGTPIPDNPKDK

ORF 73 = target: T3, ORF 73 (Human herpesvirus 8, UniProt O40947); experiment: inhibitors of C-LANA binding to LBS DNA, dose response, biochemical, fluorescence polarization, cherry-picked samples (AID 504725); set-up: species or system Human gammaherpesvirus 8;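 further: fluorescence polarization of a labeled DNA duplex reporting LANA DNA binding; potency is for inhibitors that block LANA binding to the DNA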
T3 sequence (O40947 whole entry): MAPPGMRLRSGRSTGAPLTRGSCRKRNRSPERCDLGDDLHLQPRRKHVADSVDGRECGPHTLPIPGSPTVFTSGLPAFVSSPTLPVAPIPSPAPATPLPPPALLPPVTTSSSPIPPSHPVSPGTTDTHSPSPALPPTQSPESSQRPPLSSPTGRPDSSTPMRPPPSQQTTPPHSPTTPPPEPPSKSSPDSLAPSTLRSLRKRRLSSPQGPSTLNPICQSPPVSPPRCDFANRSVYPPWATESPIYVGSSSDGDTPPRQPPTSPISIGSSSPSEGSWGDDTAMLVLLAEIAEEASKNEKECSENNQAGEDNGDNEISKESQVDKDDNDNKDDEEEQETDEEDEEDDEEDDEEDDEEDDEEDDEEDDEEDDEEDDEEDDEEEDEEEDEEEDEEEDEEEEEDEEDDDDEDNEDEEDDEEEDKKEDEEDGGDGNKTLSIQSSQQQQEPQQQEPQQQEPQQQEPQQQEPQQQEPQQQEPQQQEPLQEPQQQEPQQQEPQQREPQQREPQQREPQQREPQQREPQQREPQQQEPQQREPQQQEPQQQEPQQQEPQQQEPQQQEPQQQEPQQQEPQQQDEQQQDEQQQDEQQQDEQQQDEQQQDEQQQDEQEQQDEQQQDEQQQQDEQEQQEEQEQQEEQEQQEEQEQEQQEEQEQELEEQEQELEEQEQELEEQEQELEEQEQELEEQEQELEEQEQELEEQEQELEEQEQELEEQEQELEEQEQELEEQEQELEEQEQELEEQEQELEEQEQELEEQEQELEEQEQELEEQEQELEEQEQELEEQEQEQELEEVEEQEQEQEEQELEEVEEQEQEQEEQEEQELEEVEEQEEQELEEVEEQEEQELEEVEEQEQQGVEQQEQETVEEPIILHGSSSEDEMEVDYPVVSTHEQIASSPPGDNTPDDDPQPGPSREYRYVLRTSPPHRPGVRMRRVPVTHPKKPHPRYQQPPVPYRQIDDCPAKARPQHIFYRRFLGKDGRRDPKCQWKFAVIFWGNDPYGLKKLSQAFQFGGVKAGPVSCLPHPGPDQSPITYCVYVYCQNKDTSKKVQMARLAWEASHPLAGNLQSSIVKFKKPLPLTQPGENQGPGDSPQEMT

[9] = target: ATP-dependent translocase ABCB1 (Homo sapiens, UniProt P08183); experiment: ABCB1 efflux pump inhibitor potency, dose response, Jurkat-DNR cells, JC-1, flow cytometry (AID 1689); assay type: functional
[10] = target: Broad substrate specificity ATP-binding cassette transporter ABCG2 (Homo sapiens, UniProt Q9UNQ0); experiment: ABCG2 efflux pump inhibitors, dose response, Ig-MXP3 cells, flow cytometry (AID 1690); assay type: functional
Broad substrate specificity ATP-binding cassette transporter ABCG2, sequence (Q9UNQ0 whole entry): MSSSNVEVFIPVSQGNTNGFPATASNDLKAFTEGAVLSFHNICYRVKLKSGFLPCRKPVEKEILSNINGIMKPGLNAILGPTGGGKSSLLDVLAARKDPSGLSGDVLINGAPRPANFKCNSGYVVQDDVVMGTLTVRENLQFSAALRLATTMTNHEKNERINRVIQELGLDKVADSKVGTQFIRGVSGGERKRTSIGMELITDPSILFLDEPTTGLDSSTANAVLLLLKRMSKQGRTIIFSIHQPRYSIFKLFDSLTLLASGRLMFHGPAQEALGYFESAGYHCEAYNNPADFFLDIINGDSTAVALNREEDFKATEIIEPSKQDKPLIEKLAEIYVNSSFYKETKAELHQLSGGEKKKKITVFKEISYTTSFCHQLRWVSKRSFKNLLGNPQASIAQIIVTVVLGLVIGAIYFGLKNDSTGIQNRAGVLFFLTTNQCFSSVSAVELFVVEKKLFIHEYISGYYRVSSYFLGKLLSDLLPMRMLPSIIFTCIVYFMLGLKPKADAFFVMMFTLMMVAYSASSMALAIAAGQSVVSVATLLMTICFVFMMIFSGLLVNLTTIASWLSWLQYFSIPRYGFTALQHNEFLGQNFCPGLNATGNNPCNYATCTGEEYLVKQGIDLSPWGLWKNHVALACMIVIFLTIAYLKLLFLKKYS

T1 sequence (Q932Y6 whole entry): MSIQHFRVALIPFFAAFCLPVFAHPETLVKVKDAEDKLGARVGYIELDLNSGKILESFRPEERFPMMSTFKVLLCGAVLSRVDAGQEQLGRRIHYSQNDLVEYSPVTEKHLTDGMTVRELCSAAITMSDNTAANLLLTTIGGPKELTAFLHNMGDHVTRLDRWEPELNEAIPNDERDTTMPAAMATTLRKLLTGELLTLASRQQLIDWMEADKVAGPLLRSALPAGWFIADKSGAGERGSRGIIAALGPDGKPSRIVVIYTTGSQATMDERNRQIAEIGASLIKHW
ATP-dependent translocase ABCB1, sequence (P08183 whole entry): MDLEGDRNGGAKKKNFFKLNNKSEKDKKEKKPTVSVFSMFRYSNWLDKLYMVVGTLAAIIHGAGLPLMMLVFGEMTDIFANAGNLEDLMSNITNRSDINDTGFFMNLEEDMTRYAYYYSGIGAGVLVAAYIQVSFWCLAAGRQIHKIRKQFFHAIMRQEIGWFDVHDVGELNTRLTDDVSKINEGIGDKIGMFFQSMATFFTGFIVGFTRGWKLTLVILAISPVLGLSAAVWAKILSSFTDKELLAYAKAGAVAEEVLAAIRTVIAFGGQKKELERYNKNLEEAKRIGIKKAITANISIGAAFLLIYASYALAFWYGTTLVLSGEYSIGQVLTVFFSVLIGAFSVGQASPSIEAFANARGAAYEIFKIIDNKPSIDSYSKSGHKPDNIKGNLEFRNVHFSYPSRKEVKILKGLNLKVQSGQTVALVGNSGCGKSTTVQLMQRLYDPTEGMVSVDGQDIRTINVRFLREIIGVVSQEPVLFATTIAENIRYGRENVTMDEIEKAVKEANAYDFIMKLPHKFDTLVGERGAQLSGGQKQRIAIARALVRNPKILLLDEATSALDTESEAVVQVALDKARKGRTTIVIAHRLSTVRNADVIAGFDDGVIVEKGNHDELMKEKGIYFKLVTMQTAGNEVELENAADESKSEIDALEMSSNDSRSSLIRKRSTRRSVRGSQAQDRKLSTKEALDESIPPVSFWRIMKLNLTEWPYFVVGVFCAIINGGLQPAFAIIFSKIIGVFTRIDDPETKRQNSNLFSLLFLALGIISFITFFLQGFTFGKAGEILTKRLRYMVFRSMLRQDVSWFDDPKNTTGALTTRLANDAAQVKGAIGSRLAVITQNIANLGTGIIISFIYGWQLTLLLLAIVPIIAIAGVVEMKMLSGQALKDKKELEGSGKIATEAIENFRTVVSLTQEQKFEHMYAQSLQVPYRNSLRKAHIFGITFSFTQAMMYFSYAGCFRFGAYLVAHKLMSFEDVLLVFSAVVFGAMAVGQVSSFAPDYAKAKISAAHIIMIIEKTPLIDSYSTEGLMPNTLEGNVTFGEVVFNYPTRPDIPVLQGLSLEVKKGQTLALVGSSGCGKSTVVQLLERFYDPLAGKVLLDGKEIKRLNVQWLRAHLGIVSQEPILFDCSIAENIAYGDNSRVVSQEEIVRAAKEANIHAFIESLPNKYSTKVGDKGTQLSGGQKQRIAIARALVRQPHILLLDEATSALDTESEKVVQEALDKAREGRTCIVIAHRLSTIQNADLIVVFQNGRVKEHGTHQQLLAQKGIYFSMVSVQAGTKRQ
Beta-lactamase (Pseudomonas aeruginosa, UniProt Q79MP6), sequence (Q79MP6 whole entry): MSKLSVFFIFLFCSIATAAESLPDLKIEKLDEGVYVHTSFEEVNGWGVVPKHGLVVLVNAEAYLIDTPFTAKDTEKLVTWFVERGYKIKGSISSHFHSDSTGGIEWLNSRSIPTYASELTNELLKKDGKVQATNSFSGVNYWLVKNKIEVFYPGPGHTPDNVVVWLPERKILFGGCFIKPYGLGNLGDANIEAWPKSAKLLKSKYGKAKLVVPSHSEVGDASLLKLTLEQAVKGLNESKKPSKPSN
Voltage-dependent T-type calcium channel subunit alpha-1H, sequence (O95180 whole entry): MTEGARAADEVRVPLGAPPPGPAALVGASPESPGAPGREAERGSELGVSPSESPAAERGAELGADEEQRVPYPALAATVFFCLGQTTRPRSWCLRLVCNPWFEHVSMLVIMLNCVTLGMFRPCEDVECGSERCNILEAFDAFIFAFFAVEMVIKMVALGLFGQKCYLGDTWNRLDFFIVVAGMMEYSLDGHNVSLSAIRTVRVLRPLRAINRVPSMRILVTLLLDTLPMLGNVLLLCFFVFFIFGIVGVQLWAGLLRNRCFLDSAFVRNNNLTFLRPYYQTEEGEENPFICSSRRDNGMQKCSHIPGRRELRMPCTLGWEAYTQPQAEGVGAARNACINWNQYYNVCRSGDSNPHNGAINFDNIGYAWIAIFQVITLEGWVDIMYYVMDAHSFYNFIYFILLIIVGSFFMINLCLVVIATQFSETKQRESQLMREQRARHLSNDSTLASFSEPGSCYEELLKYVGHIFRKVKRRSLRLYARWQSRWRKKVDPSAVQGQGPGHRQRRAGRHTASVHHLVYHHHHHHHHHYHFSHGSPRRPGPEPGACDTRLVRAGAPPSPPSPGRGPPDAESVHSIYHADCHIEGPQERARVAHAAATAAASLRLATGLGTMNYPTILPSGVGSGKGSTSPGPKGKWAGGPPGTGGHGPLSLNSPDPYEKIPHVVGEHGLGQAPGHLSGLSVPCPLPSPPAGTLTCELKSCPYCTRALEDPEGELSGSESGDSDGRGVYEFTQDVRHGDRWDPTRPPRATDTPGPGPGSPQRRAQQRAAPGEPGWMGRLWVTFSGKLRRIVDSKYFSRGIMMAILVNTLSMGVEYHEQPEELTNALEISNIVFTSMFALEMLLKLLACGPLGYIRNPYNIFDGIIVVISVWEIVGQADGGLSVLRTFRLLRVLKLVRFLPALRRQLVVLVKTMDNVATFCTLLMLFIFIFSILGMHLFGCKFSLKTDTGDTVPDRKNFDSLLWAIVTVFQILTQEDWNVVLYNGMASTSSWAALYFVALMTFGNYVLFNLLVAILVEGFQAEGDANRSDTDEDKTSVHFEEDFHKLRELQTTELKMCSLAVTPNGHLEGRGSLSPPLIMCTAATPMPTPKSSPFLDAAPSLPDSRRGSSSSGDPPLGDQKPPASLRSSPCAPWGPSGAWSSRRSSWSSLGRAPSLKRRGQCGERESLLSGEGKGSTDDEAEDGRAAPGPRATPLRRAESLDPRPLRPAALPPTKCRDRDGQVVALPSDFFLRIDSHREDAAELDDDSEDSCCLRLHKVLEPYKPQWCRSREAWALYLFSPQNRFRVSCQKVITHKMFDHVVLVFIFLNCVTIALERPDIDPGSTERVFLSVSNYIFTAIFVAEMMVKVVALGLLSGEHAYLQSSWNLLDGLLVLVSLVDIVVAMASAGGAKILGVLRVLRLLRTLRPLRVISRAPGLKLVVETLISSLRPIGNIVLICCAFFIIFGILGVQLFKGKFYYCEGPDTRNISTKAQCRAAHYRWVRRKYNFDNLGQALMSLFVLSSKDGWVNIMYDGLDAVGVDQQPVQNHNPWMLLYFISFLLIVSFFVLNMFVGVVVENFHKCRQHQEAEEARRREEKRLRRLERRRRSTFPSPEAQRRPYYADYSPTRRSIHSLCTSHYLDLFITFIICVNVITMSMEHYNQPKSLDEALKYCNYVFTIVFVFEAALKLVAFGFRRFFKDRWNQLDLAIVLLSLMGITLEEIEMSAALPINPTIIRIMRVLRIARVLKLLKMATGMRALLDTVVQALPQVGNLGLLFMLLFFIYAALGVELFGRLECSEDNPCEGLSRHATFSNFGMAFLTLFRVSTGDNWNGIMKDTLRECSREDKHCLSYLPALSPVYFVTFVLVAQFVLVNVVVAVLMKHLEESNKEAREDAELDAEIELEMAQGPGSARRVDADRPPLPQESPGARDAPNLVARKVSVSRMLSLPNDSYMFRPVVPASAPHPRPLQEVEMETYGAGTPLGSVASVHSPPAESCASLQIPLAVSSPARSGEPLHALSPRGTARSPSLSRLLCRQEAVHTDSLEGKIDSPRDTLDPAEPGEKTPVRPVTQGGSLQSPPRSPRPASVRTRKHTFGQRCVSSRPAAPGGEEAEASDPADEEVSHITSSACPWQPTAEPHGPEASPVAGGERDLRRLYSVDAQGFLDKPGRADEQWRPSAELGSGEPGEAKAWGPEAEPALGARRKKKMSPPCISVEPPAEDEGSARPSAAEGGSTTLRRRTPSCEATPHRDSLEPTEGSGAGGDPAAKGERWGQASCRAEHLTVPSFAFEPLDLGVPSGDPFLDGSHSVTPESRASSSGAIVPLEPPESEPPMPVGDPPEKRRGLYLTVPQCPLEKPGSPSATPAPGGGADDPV
Beta-lactamase (Salmonella choleraesuis (strain SC-B67), UniProt Q5J463), sequence (Q5J463 whole entry): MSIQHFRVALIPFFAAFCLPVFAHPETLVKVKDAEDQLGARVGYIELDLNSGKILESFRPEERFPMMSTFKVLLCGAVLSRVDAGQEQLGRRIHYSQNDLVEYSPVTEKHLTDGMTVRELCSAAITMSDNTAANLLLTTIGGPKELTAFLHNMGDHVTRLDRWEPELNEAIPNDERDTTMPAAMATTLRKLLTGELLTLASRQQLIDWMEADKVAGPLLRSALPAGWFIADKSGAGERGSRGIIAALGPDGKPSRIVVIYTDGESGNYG

C[C@@H]1CN([C@@H](C)CO)C(=O)c2cccc(NC(=O)Nc3ccc(C(F)(F)F)cc3)c2O[C@@H]1CN(C)Cc1ccc(Cl)c(Cl)c1
AC50 [1]: 14.2 µM (active)

CN1C(=O)/C(=N\CCc2ccccc2)c2c3ccccc3c(O)c3cccc1c23
AC50 [2]: 730 nM (active) | EC50 (Streptococcus): > 150 µM (not active) | IC50 (CHO): > 49.8 µM (inactive) | EC50 [3]: 11.3 µM (active) | IC50 (Beta-lactamase [4]): 2.19 µM (active) | IC50 (Beta Lactamase [5]): 5.98 µM (active) | EC50 [6]: 1.6 µM (active) | IC50 (Beta-lactamase [7]): 11.5 µM (inactive) | IC50 (Beta Lactamase [8]): 9.24 µM (active) | EC50 (Streptokinase A): > 150 µM (not active) | AC50 (ORF 73): 902 nM (active)

CCOc1ccc(NC(=O)c2cccc3c2C(=O)N(CCOC)C3)cc1
EC50 [9]: 8.31 µM (inactive) | EC50 [10]: 1.6 µM (active)
